The record followed here is patent US5618537A, “Plant-based medicaments for increasing the tone and modulating the tone of the smooth muscular organ” (Steigerwald Arzneimittelwerk GmbH, priority 1991, dated 1997).

For assay [1], the system named is guinea-pig ileum. Kind of assay: Increase in basal tone of resting isolated guinea-pig ileum (Magnus model). As to conditions: 40 μg/l; for Contraction induced by acetylcholine, Average value: average of 6. On the set-up: unit not given here.
The subject of assay [2] is carrageenan oedema. Briefly: Carrageenan oedema model of the rat (paw volume, plethysmometer). The note with it: 4 mg/kg of body wt., 1/2 h before induction. The format is in vivo. On the procedure: The carrageenan oedema model of the rat is an internationally recognised pharmacological method for uncovering clinically relevant anti-inflammatory agents.
The test substances were administered 1/2 h before induction of oedema; the control animals received the solvent (30% ethanol). The paw volume was measured with a plethysmometer before (0 value) oedema induction and 1, 2, 3, 4 and 6 hours after.
The anti-inflammatory action of the test substances was calculated according to the formula [formula] V=average value of the differences from the 0 value: drug group K=average value of the differences from the 0 value; control group
(In general: Carrageenan injected into the paw causes an acute inflammation.)

Consider `CC(=O)OCC[N+](C)(C)C` [Acetylch., acetylcholine], for which the “Contraction induced by acetylcholine (comparison for increase in basal tone)” value is given as 10.1 in assay [1] (Table 2 series (STW 5-II), Expt. 1); 14.6 in assay [1] (Table 2 series (STW 5-II), Expt. 2); 11.7 in assay [1] (Table 2 series (STW 5-II), Expt. 3); 14.0 in assay [1] (Table 2 series (STW 5-II), Expt. 4); 12.7 in assay [1] (Table 2 series (STW 5-II), Expt. 5); 8.6 in assay [1] (Table 2 series (STW 5-II), Expt. 6). Also, the “Contraction induced by acetylcholine (comparison for increase in basal tone)” value in assay [1] (Table 3 series (STW 5), Expt. 1) is 11.8; in assay [1] (Table 3 series (STW 5), Expt. 2) it was 6.3; in assay [1] (Table 3 series (STW 5), Expt. 3), 12.1; in assay [1] (Table 3 series (STW 5), Expt. 4), 9.9; in assay [1] (Table 3 series (STW 5), Expt. 5), 12.2; in assay [1] (Table 3 series (STW 5), Expt. 6), 5.9. The results for the “Contraction induced by acetylcholine, Average value” in assay [1] (Table 2 series (STW 5-II)) and in assay [1] (Table 3 series (STW 5)) were 11.95 and 9.70, respectively.

Take `COc1ccc2c(c1)c(CC(=O)O)c(C)n2C(=O)c1ccc(Cl)cc1` [Indomethacin]: the “% inhibition of carrageenan oedema” value in assay [2] (1 h after oedema induction) was 24.0%; in assay [2] (2 h after oedema induction), 23.5%; in assay [2] (3 h after oedema induction) it was 35.0%; in assay [2] (4 h after oedema induction) it was 47.5%; in assay [2] (6 h after oedema induction), 61.3%.
